Literature values in patent publication US20230201309A1, “COMPOSITIONS FOR THE TREATMENT OF A RESPIRATORY CONDITION” (VECTURA LIMITED, priority 2020, published 2023).

Tested on: COVID-19

CCN(CCO)CCCC(C)Nc1ccnc2cc(Cl)ccc12 (centres unmarked) [hydroxychloroquine sulphate]
Hospital mortality (hospitalised COVID-19 patients, hydroxychloroquine sulphate monotherapy plus supportive care, total dose 2400 mg, 804/4,542 patients): 17.7%
mortality, adjusted hazard ratio (aHR) vs no-hydroxychloroquine sulphate group (multivariate analysis, 95% CI 0.617-0.758): 0.684
